From paper PMC5034817 (Journal of Neurochemistry, 2015)
Values joined by “and” are separate entries in the source; they are usually repeats but may differ in a detail not shown here. Identical values can stand only once. “Also recorded” adds a separate entry of the source.

B1: Goα, endogenous rat brain (natural protein, rat (endogenous in rat brain), UniProt P59215 1-354, looked up)
chain: MGCTLSAEERAALERSKAIEKNLKEDGISAAKDVKLLLLGAGESGKSTIVKQMKIIHEDGFSGEDVKQYKPVVYSNTIQSLAAIVRAMDTLGVEYGDKERKADSKMVCDVVSRMEDTEPFSAELLSAMMRLWGDSGIQECFNRSREYQLNDSAKYYLDSLDRIGAADYQPTEQDILRTRVKTTGIVETHFTFKNLHFRLFDVGGQRSERKKWIHCFEDVTAIIFCVALSGYDQVLHEDETTNRMHESLMLFDSICNNKFFIDTSIILFLNKKDLFGEKIKKSPLTICFPEYPGSNTYEDAAAYIQTQFESKNRSPNKEIYCHMTCATDTNNIQVVFDAVTDIIIANNLRGCGLY
B2: His6RGS4 (recombinant regulator of G protein signaling 4) (natural protein, UniProt P49799 1-205, looked up)
chain: MCKGLAGLPASCLRSAKDMKHRLGFLLQKSDSCEHSSSHSKKDKVVTCQRVSQEEVKKWAESLENLINHECGLAAFKAFLKSEYSEENIDFWISCEEYKKIKSPSKLSPKAKKIYNEFISVQATKEVNLDSCTREETSRNMLEPTITCFDEAQKKIFNLMEKDSYRRFLKSRFYLDLTNPSSCGAEKQKGAKSSADCTSLVPQCA
B3: RGS4: recombinant regulator of G protein signaling 4, His6-tagged, expressed in JM109 E. coli (protein)
chain: B2 chain
modifications: left off: His6, end not stated, kept

Key:
[1] = target: rat mu opioid receptor (MOR)/G protein complex (Rattus norvegicus, UniProt P33535+P59215); test: Co-immunoprecipitation of Goα and RGS4 with solubilized MOR; assay type: biochemical; conditions: for amount of RGS4 co-immunoprecipitated with MOR: 1 μM DAMGO, 0.3 μM RGS4
Goα = Goα (Rattus norvegicus, UniProt P59215); test: His6RGS4/Ni2+-NTA agarose pull-down of Goα from solubilized rat brain membranes; assay type: biochemical; conditions: for effect on association of Goα with His6RGS4: 100 μM GDP or 10 μM GTP alone
mu opioid receptor = mu opioid receptor (Homo sapiens, UniProt P35372); test: biochemical
MOR = MOR (Homo sapiens, UniProt P35372); assay type: biochemical; conditions: presence of 1 μM RGS4
MOR/G protein complex = MOR/G protein complex (Rattus norvegicus, UniProt P33535); test: Co-immunoprecipitation of Goα with MOR using anti-MOR349-398; assay type: biochemical; conditions: 1 µM DAMGO; IP with anti-MOR349-398; Figure S2c
[2] = system: RGS4 mRNA levels in the locus coeruleus; conditions: 6 days of chronic morphine administration; ref Gold et al. 2003; cited from earlier work
[3] = target: B2; test: pull-down
[4] = target: mu opioid receptor (MOR), endogenous rat brain (rat, UniProt P33535 1-398); test: co-IP
Go/Gi-type G proteins = assay type: biochemical, human; conditions: RGS4 added

Chain of mu opioid receptor (P35372 whole entry): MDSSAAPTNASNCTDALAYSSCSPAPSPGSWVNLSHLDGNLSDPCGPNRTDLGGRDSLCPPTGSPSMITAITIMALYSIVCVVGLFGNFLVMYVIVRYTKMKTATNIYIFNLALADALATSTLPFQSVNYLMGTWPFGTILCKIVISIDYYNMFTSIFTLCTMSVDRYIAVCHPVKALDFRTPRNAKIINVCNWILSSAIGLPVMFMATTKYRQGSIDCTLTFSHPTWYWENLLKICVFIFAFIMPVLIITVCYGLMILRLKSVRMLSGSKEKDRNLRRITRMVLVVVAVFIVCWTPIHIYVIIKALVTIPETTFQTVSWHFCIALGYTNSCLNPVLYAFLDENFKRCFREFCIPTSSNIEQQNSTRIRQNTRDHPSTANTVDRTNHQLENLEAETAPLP
Chain of rat mu opioid receptor (MOR)/G protein complex (P33535 whole entry, one chain of several): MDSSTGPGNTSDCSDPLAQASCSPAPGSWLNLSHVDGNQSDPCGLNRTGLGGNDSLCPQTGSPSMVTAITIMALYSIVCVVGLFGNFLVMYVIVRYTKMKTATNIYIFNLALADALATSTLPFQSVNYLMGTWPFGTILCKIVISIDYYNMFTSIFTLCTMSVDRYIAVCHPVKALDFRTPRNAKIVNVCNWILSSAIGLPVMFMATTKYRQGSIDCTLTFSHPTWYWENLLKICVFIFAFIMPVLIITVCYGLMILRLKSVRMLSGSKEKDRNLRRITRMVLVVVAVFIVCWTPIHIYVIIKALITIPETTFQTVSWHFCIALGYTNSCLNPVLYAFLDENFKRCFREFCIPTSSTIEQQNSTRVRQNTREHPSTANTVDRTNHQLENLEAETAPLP
Chain of MOR (P35372 whole entry): as the sequence (P35372 whole entry) above
Chain of MOR/G protein complex (P33535 whole entry, one chain of several): as the sequence (P33535 whole entry, one chain of several) above
Chain of mu opioid receptor (MOR), endogenous rat brain (P33535 whole entry): as the sequence (P33535 whole entry, one chain of several) above

C[C@@H](NC(=O)[C@@H](N)Cc1ccc(O)cc1)C(=O)NCC(=O)N(C)[C@@H](Cc1ccccc1)C(=O)NCCO [DAMGO, [D‐Ala^2, N‐Me‐Phe^4, Gly^5‐ol] enkephalin]
increase in RGS4 co-immunoprecipitating with MOR ([1]; DAMGO during immunoprecipitation vs no addition): 50% and 53%
effect on binding of Goα to RGS4 (Goα; 1 μM DAMGO alone, without guanine nucleotide): did not affect
Goα molecules whose affinity for GDP is decreased by MOR activation (Goα; DAMGO with 100 μM GDP and 0.3 μM GTPγS): 40–50%
inhibition of forskolin-stimulated adenylyl cyclase activity (mu opioid receptor): 21.8% ± 2.27
maximal inhibition, adenylyl cyclase activity reduced to (mu opioid receptor): 3.28 pmoles cAMP formed in 10 min and 3.92 pmoles cAMP formed in 10 min
inhibition at 1 µM (mu opioid receptor; read-out: inhibition of adenylyl cyclase activity): 60.4 ± 2.97%
maximal amount of [35S]GTPγS bound (Bmax) (MOR): 1319 ± 82 dpm
increase in Goα co-immunoprecipitating with MOR (MOR/G protein complex): ~2 fold

Nc1nc2c(ncn2[C@@H]2O[C@H](COP(=O)(O)OP(=O)(O)O)[C@@H](O)[C@H]2O)c(=O)[nH]1 [GDP]
effect on association of Goα with His6RGS4 (Goα): failed to affect; also recorded: Neither 100 μM GDP nor 10 μM GTP affected; also recorded: neither GTP nor GDP had an effect
effect on GTPγS-enhanced Goα binding to RGS4 (Goα; 100 μM GDP with 0.3 μM GTPγS): blocked this effect; also recorded: prevented; also recorded: return to the control level

Nc1nc2c(ncn2[C@@H]2O[C@H](COP(=O)(O)OP(=O)(O)OP(=O)(O)O)[C@@H](O)[C@H]2O)c(=O)[nH]1 [GTP]
effect on amount of Goα associated with MOR ([1]; 10 μM GTP added to DAMGO vs DAMGO alone): did not alter
additional increase in RGS4 co-immunoprecipitating with MOR ([1]; 10 μM GTP with 1 μM DAMGO vs DAMGO alone): 72% and 71.6%
effect on association of Goα with His6RGS4 (Goα): failed to affect; also recorded: Neither 100 μM GDP nor 10 μM GTP affected; also recorded: neither GTP nor GDP had an effect

CN1CC[C@]23c4c5ccc(O)c4O[C@H]2[C@@H](O)C=C[C@H]3[C@H]1C5 [morphine]
RGS4 mRNA levels in the locus coeruleus [2]: doubled

B1
fold increase of Goα bound to His6RGS4 with 0.3 uM GTPγS against control [3]: ~3 fold

B2
stoichiometry N [4]: ~1

B3
amount of RGS4 co-immunoprecipitated with MOR ([1]; absence of GTPγS): 9 ± 1.1 fmol
amount of RGS4 co-immunoprecipitated with MOR ([1]; presence of 1 μM GTPγS): 28 fmol and 28.4 ± 5.4 fmol
ratio of MOR to RGS4 in the immunoprecipitate ([1]; presence of GTPγS): 1–1
effect on GTPγS-mediated inhibition of adenylyl cyclase activity (Go/Gi-type G proteins): failed to attenuate; also recorded: failed to affect; also recorded: had no effect
